{"source": "paper PMC12090182", "about": "“Repurposing of the RIPK1-Selective Benzo[1,4]oxazepin-4-one Scaffold for the Development of a Type III LIMK1/2 Inhibitor” (ACS Chemical Biology, 2025)", "system": "MRC-9 cells", "assay": "Multiplex high-content viability assessment", "type": "cell-based", "settings": "10 µM, human fibroblast", "experimental": "To assess the influence on cell health, a high-content screening in living cells called the multiplex high-content assay, as described previously by Tjaden et al., was performed.[38] In brief, HEK293T (ATCC CRL-1573) and U2OS (ATCCHTB-96) were cultured in DMEM plus L-glutamine (high glucose) supplemented by 10% FBS (Gibco) and penicillin/streptomycin (Gibco). MRC-9 fibroblasts ([…]) were cultured in EMEM plus L-glutamine supplemented by 10% FBS (Gibco) and penicillin/streptomycin (Gibco). Cells were seeded at a density of 1250 cells per well in a 384-well plate in a culture medium (cell culture microplate, PS, f-bottom, μClear, 781091, Greiner), with a volume of 50 μL per well. All outer wells were filled with 100 μL of PBS buffer (Gibco). […] The cell shape and fluorescence were measured before treatment and 12, 24, and 48 h after compound treatment using the CQ1 high-content confocal microscope (Yokogawa, Musashino, Japan). […] The compounds were tested at 1 and 10 μM, respectively. Acquired images of the cells were processed using Yokogawa CellPathfinder software (v3.04.02.02). […] Results were normalized to cells exposed to 0.1% DMSO. All compounds were tested in biological duplicates, and SEM (standard error of mean) was calculated of biological duplicates."}
{"smiles": "CC(C)C(=O)Nc1ncc(-c2cc(C(F)F)nn2-c2c(Cl)cccc2Cl)s1", "note": "[LIMKi3]", "values": [{"measurement": "Cell count normalized to cells treated with DMSO control", "setting": "0 h, biological replicate 1", "result": 1.054}, {"measurement": "Cell count per well", "setting": "0 h, biological replicate 1", "result": 158}, {"measurement": "Population Fragmented Nuclei (%)", "setting": "0 h, biological replicate 1", "result": 19.48, "unit": "%"}, {"measurement": "Population Healthy Nuclei (%)", "setting": "0 h, biological replicate 1", "result": 62.99, "unit": "%"}, {"measurement": "Population Pyknosed Nuclei (%)", "setting": "0 h, biological replicate 1", "result": 17.53, "unit": "%"}, {"measurement": "Population apoptotic cell (%)", "setting": "0 h, biological replicate 1", "result": 44.44, "unit": "%"}, {"measurement": "Population cell that influence microtubule strucutre (%)", "setting": "0 h, biological replicate 1", "result": 22.68, "unit": "%"}, {"measurement": "Population with increased mitochondrial mass (%)", "setting": "0 h, biological replicate 1", "result": 9.28, "unit": "%"}, {"measurement": "Population with membrane disruption (%)", "setting": "0 h, biological replicate 1", "result": 0.00, "unit": "%"}, {"measurement": "Cell count normalized to cells treated with DMSO control", "setting": "0 h, biological replicate 2", "result": 1.02}, {"measurement": "Cell count per well", "setting": "0 h, biological replicate 2", "result": 182}, {"measurement": "Population Fragmented Nuclei (%)", "setting": "0 h, biological replicate 2", "result": 18.39, "unit": "%"}, {"measurement": "Population Healthy Nuclei (%)", "setting": "0 h, biological replicate 2", "result": 59.77, "unit": "%"}, {"measurement": "Population Pyknosed Nuclei (%)", "setting": "0 h, biological replicate 2", "result": 21.84, "unit": "%"}, {"measurement": "Population apoptotic cell (%)", "setting": "0 h, biological replicate 2", "result": 50.00, "unit": "%"}, {"measurement": "Population cell that influence microtubule strucutre (%)", "setting": "0 h, biological replicate 2", "result": 38.46, "unit": "%"}, {"measurement": "Population with increased mitochondrial mass (%)", "setting": "0 h, biological replicate 2", "result": 6.73, "unit": "%"}, {"measurement": "Population with membrane disruption (%)", "setting": "0 h, biological replicate 2", "result": 4.81, "unit": "%"}, {"measurement": "Cell count normalized to cells treated with DMSO control", "setting": "12 h, biological replicate 1", "result": 1.2685}, {"measurement": "Cell count per well", "setting": "12 h, biological replicate 1", "result": 191}, {"measurement": "Population Fragmented Nuclei (%)", "setting": "12 h, biological replicate 1", "result": 21.91, "unit": "%"}, {"measurement": "Population Healthy Nuclei (%)", "setting": "12 h, biological replicate 1", "result": 61.24, "unit": "%"}, {"measurement": "Population Pyknosed Nuclei (%)", "setting": "12 h, biological replicate 1", "result": 16.85, "unit": "%"}, {"measurement": "Population apoptotic cell (%)", "setting": "12 h, biological replicate 1", "result": 40.00, "unit": "%"}, {"measurement": "Population cell that influence microtubule strucutre (%)", "setting": "12 h, biological replicate 1", "result": 92.66, "unit": "%"}, {"measurement": "Population with increased mitochondrial mass (%)", "setting": "12 h, biological replicate 1", "result": 15.60, "unit": "%"}, {"measurement": "Population with membrane disruption (%)", "setting": "12 h, biological replicate 1", "result": 0.92, "unit": "%"}, {"measurement": "Cell count normalized to cells treated with DMSO control", "setting": "12 h, biological replicate 2", "result": 1.111}, {"measurement": "Cell count per well", "setting": "12 h, biological replicate 2", "result": 185}, {"measurement": "Population Fragmented Nuclei (%)", "setting": "12 h, biological replicate 2", "result": 27.68, "unit": "%"}, {"measurement": "Population Healthy Nuclei (%)", "setting": "12 h, biological replicate 2", "result": 47.46, "unit": "%"}, {"measurement": "Population Pyknosed Nuclei (%)", "setting": "12 h, biological replicate 2", "result": 24.86, "unit": "%"}, {"measurement": "Population apoptotic cell (%)", "setting": "12 h, biological replicate 2", "result": 52.27, "unit": "%"}, {"measurement": "Population cell that influence microtubule strucutre (%)", "setting": "12 h, biological replicate 2", "result": 92.86, "unit": "%"}, {"measurement": "Population with increased mitochondrial mass (%)", "setting": "12 h, biological replicate 2", "result": 14.29, "unit": "%"}, {"measurement": "Population with membrane disruption (%)", "setting": "12 h, biological replicate 2", "result": 21.43, "unit": "%"}, {"measurement": "Cell count normalized to cells treated with DMSO control", "setting": "24 h, biological replicate 1", "result": 1.273}, {"measurement": "Cell count per well", "setting": "24 h, biological replicate 1", "result": 192}, {"measurement": "Population Fragmented Nuclei (%)", "setting": "24 h, biological replicate 1", "result": 24.02, "unit": "%"}, {"measurement": "Population Healthy Nuclei (%)", "setting": "24 h, biological replicate 1", "result": 64.25, "unit": "%"}, {"measurement": "Population Pyknosed Nuclei (%)", "setting": "24 h, biological replicate 1", "result": 11.73, "unit": "%"}, {"measurement": "Population apoptotic cell (%)", "setting": "24 h, biological replicate 1", "result": 42.86, "unit": "%"}, {"measurement": "Population cell that influence microtubule strucutre (%)", "setting": "24 h, biological replicate 1", "result": 93.04, "unit": "%"}, {"measurement": "Population with increased mitochondrial mass (%)", "setting": "24 h, biological replicate 1", "result": 32.17, "unit": "%"}, {"measurement": "Population with membrane disruption (%)", "setting": "24 h, biological replicate 1", "result": 1.74, "unit": "%"}, {"measurement": "Cell count normalized to cells treated with DMSO control", "setting": "24 h, biological replicate 2", "result": 1.116}, {"measurement": "Cell count per well", "setting": "24 h, biological replicate 2", "result": 184}, {"measurement": "Population Fragmented Nuclei (%)", "setting": "24 h, biological replicate 2", "result": 31.58, "unit": "%"}, {"measurement": "Population Healthy Nuclei (%)", "setting": "24 h, biological replicate 2", "result": 47.95, "unit": "%"}, {"measurement": "Population Pyknosed Nuclei (%)", "setting": "24 h, biological replicate 2", "result": 20.47, "unit": "%"}, {"measurement": "Population apoptotic cell (%)", "setting": "24 h, biological replicate 2", "result": 48.57, "unit": "%"}, {"measurement": "Population cell that influence microtubule strucutre (%)", "setting": "24 h, biological replicate 2", "result": 92.68, "unit": "%"}, {"measurement": "Population with increased mitochondrial mass (%)", "setting": "24 h, biological replicate 2", "result": 21.95, "unit": "%"}, {"measurement": "Population with membrane disruption (%)", "setting": "24 h, biological replicate 2", "result": 6.10, "unit": "%"}, {"measurement": "Cell count normalized to cells treated with DMSO control", "setting": "48 h, biological replicate 1", "result": 1.325}, {"measurement": "Cell count per well", "setting": "48 h, biological replicate 1", "result": 201}, {"measurement": "Population Fragmented Nuclei (%)", "setting": "48 h, biological replicate 1", "result": 25.53, "unit": "%"}, {"measurement": "Population Healthy Nuclei (%)", "setting": "48 h, biological replicate 1", "result": 63.83, "unit": "%"}, {"measurement": "Population Pyknosed Nuclei (%)", "setting": "48 h, biological replicate 1", "result": 10.64, "unit": "%"}, {"measurement": "Population apoptotic cell (%)", "setting": "48 h, biological replicate 1", "result": 70.00, "unit": "%"}, {"measurement": "Population cell that influence microtubule strucutre (%)", "setting": "48 h, biological replicate 1", "result": 98.33, "unit": "%"}, {"measurement": "Population with increased mitochondrial mass (%)", "setting": "48 h, biological replicate 1", "result": 42.50, "unit": "%"}, {"measurement": "Population with membrane disruption (%)", "setting": "48 h, biological replicate 1", "result": 0.83, "unit": "%"}, {"measurement": "Cell count normalized to cells treated with DMSO control", "setting": "48 h, biological replicate 2", "result": 1.216}, {"measurement": "Cell count per well", "setting": "48 h, biological replicate 2", "result": 198}, {"measurement": "Population Fragmented Nuclei (%)", "setting": "48 h, biological replicate 2", "result": 37.50, "unit": "%"}, {"measurement": "Population Healthy Nuclei (%)", "setting": "48 h, biological replicate 2", "result": 43.23, "unit": "%"}, {"measurement": "Population Pyknosed Nuclei (%)", "setting": "48 h, biological replicate 2", "result": 19.27, "unit": "%"}, {"measurement": "Population apoptotic cell (%)", "setting": "48 h, biological replicate 2", "result": 51.35, "unit": "%"}, {"measurement": "Population cell that influence microtubule strucutre (%)", "setting": "48 h, biological replicate 2", "result": 90.36, "unit": "%"}, {"measurement": "Population with increased mitochondrial mass (%)", "setting": "48 h, biological replicate 2", "result": 21.69, "unit": "%"}, {"measurement": "Population with membrane disruption (%)", "setting": "48 h, biological replicate 2", "result": 12.05, "unit": "%"}]}
